{"source": "patent US9133208B2", "about": "“Radiolabelled rotenone derivatives and their use in SPECT imaging” (priority 2011, dated 2015)", "key": {"[1]": {"test": "Ex vivo biodistribution in Sprague-Dawley rats", "details": "2 hr p.i.", "description": "An amount of 0.5 mL of a 2.4 mCi/mL mixture of compounds 6-9 (Mixture A: composition comprising isomeric mixture of 12% 6 and 7 diastereomers; 88% 8 and 9 diastereomers) in 7% ethanol was diluted with 0.58 mL of 10 mM sodium acetate, pH 6.5 and 0.023 mL of 95% ethanol, to produce a 1.1 mL of a 1.1 mCi/mL solution having a value of pH of about 5. An amount of 0.8 mL of this solution (0.9 mCi) was injected through the tail veins of 14 Sprague-Dawley rats. Six of the rats were used to assess biodistribution of the mixture of compounds 6-9 after two hours, and the remaining eight rats were used to determine the biodistribution of the compounds after 24 hours. Selected organs were collected and weighed and the activity was measured for each organ with a gamma well counter using the detection range of 138-207 keV, and the measured values of activity were decay-corrected to the time of injection. The values of percentage of injected dose per gram of tissue (% ID/g) were calculated by taking the ratio of the activity in the organ over the total activity injected per gram of tissue. Uptake in the heart of the rat was confirmed by the SPECT/CT images shown in FIG. 5, in which the heart is well defined.\nA biodistribution study was conducted according to the method described above using purified fractions of the mixture of isomers 6-9 (Mixture A).\nFIGS. 3B-3E show HPLC chromatograms of the four separate fractions used in the biodistribution study: Fraction 1: fraction comprising 100% of Component A*; Fraction 2: fraction comprising an isomeric mixture comprising 15.2% Component A* and 84.8% Component B*; Fraction 3: fraction comprising an isomeric mixture comprising 4.4% Component A*, 4.4% Component B* and 91.2% Component C*; Fraction 4: fraction comprising an isomeric mixture comprising 1.5% Component A*, 0.8% Component B* and 97.7% Component D*."}, "[2]": {"test_system": "dog heart", "test": "Literature tracer uptake vs microsphere flow in dog with critical LAD stenosis (Broisat et al., Glover et al.)", "type": "in vivo", "excerpt": "The slope of a non-linear fitted line to the ^123I-ZIROT data shown in FIG. 3 of Broisat et al. is −3.59."}, "[3]": {"test_system": "dog heart", "details": "representative dog, critical LAD stenosis, intravenous adenosine; cited from earlier work"}, "[4]": {"test_system": "rabbit hearts", "test": "Myocardial distribution in isolated retrograde perfused (Langendorff) rabbit heart", "design": "species or system New Zealand White rabbits", "details": "for fractional appearance rates at later time points / initial peak fractional venous appearance rate: flow rate 1.7 ml/min/g LV, FIG. 9, qualitative", "description": "Preparation of retrograde perfusion (Langendorff) was performed as previously described (R. C. Marshall, P. Powers-Risius, B. W. Reutter, S. E. Taylor, H. F. VanBrocklin, R. H. Huesman, T. F. Budinger J Nucl Med. 2001; 42:272-281, which is incorporated by reference herein) using hearts from 1.5-2.5 kg male New Zealand White rabbits (Charles River, Wilmington Mass.). Following an injection of heparin (5 mg/kg) and median sternotomy, hearts were excised keeping the ascending aorta and aortic branches, lungs and thymus intact. The hearts were immediately placed into an ice-cold bath containing modified Tyrode's solution ([…], 1 mM MgCl2, 28 mM NaHCO3, 0.44 mM NaH2PO4, 2.5 mM CaCl2, 6 mM KCl, 5 mM glucose, […] with 22 g/L BSA and aerated with 95% O2/5% CO2) and thymus and fatty tissue were quickly removed. The hearts were then suspended on an aortic cannula and perfused with pre-warmed modified Tyrode's buffer through a water jacketed, temperature regulated Langendorff perfusion system (Radnotti, Calif., USA) at a constant flow rate. Total time for suspension onto the Langendorff apparatus was typically 60 seconds or less. Following suspension on the aortic cannula, the remaining lung, trachea and extraneous tissues were removed.\nFluid from Thebesian circulation was drained via a polyethylene catheterized apical drain. A fluid filled latex ballon connected to a pressure transducer (Radnotti) was inserted into the left ventrical via the left atrium and mitral valve. Following excision of the right atrium, a pacing electrode (Radnotti) was placed at the level of the atria to allow controlled pacing of the heart.\nFollowing final preparation, the left ventricular balloon was inflated to achieve an end-diastolic pressure of approximately 8-10 mmHg with a constant systolic pressure held between 60-80 mm Hg. The heart was continually perfused with modified Tyrode's solution warmed to 38° C. and was held in an enclosed chamber to maintain humidity and temperature. The heart was paced with a Grass SD9 stimulator (Harvard Apparatus, Montreal QC) at 180 beats per minute with a stimulus of 4 V delivered over 4 ms. Perfusion and ventricular pressures were monitored throughout the experiment using a BioPac data acquisition system (BioPac, Montreal QC).\nRadioactivity from all samples were counted in a gamma counter and data was analyzed using Matlab software. […] Maximal uptake values were determined for ^99mTc-sestamibi and Mixture A at varying flow rates (0.35-3.1 ml/min/g LV wet weight)."}, "[5]": {"test_system": "pig heart", "test": "Uptake of radiotracers as a function of myocardial blood flow (MBF) in pig heart", "type": "in vivo", "details": "for myocardial flow rate at which uptake begins to level off (roll off): two hours after injection, stress and induced ischemic conditions", "excerpt": "The tissue and blood samples were weighed and measured using a gamma well counter to determine the amount of gamma radiation emitted by the I-123 radiolabel of the radio-iodinated tracers of the present invention. The measured gamma radiation in each segment represents the combined amount of gamma radiation emitted by the tracers in that segment during the resting and stressed states of the heart. The counts and the weights of the samples were also used to calculate the percentage of injected dose per gram of tissue (% ID/g). After the I-123 in the blood and tissue samples had completely decayed, both the tissue and the blood were dried in an oven at 70° C. for 48-72 h, the samples were sent for neutron activation and the gamma radiation emitted by each of the resulting radioactive [^198Au]gold-containing microspheres and [^153Sm]samarium-containing microspheres, which were embedded in the samples, were measured. Polar maps of the resting and stressed states of the isolated heart of the pig were generated using MATLAB™ to assemble the gamma measurement results in all the transected segments from the bottom (apex) to the top (AV groove) of the pig heart.\nThe myocardial blood flow (MBF) that was present in the tissue samples during the resting and stressed states was determined from the total amount of gamma radiation emitted from each of the radioactive gold and samarium microspheres, respectively, in the isolated transections of the heart of the pig and the dried blood sample according to the following equation: MBF=[(Reference blood sample withdrawal rate (4 mL/min)/(Weight of myocardial sample (g)]×[Isotope count (myocardial sample)/Isotope counts (reference blood sample)].\nFIG. 8 illustrates a plot of uptake (percent of injected dose per gram of tissue; % ID/g) of the radiotracer compounds of the present invention as a function of the myocardial blood flow in the pig heart under stress and induced ischemic conditions as determined using the marked microspheres."}, "[6]": {"test": "Literature isolated perfused heart data of Marshall et al. 2001", "excerpt": "A slower myocardial exit is beneficial for clinical diagnostic imaging since this permits the physician to gather images over a longer period of time thereby increasing image resolution, sensitivity and quality.\nMarshall et al. report slopes of 0.29 and 0.78 for the fitted linear lines to the maximal uptake data for ^99mTc-sestamibi and ^125I-rotenone, respectively. The slopes of the fitted lines to the data for ^99mTc-sestamibi and the isomers of Mixture A shown in FIG. 10 of the present application are 0.33 and 0.86, respectively. The value of the ratio of the slopes of the fitted lines for ^125I-rotenone and ^99mTc-sestamibi from Marshall et al. is 2.69, while the value of the ratio of the slopes of the fitted lines for Mixture A and ^99mTc-sestamibi shown in FIG. 10 is 2.61. […] A linear uptake of tracer with increasing flow is especially desired in a clinical setting since in patients, deficiencies in myocardial perfusion are almost exclusively detected at higher blood flow rates, i.e. during a stress test by comparison of low (ischemic) and high flow (normal) areas."}, "[7]": {"details": "compared with FIG. 9; cited from earlier work"}, "[8]": {"test_system": "rat cardiomyocytes", "test": "Cell uptake (internalization) assay with labeled rotenone derivatives", "type": "cell-based", "details": "0.5 μCi tracer, time points up to 5 min", "description": "An internalization assay was used to test the in vitro function of candidate perfusion tracers. In this assay, cultures of rat cardiomyocytes were plated at a density of 3-5×10^5 cells/mL into 24-well tissue culture plates. The cardiomyocytes were then incubated with 0.5 μCi of radiolabeled tracer ^99mTc-tetrofosmin (Myoview™) or [^123I] iodinated rotenone (mixture containing isomers 6-9) mixed in cell culture medium (DMEM) and incubated for up to five minutes. At different time points, the total supernatant was collected, the cells were washed twice with PBS and then exposed and lysed with 1 M NaOH for 15 min. Samples were counted in a gamma well counter and the cellular protein was determined for the lysed samples. The data was analyzed to represent the total “internalized” fraction expressed as cpm per total protein (FIG. 4)."}, "[9]": {"details": "flow rates 0.35-3.1 ml/min/g LV wet weight"}}}
{"compound": "COc1cc2c(cc1OC)[C@@H]1C(=O)c3ccc4c(c3O[C@@H]1CO2)C[C@H](C(C)([123I])CO)O4", "note": "(single isomer, unassigned) [B*]", "values": [{"measurement": "Heart", "setting": "[1]", "result": "slightly lower"}, {"measurement": "Heart/Liver ratio", "setting": "[1]", "result": "relatively higher"}, {"measurement": "Intestine", "setting": "[1]", "result": "significantly higher than others"}, {"measurement": "Liver", "setting": "[1]", "result": "much lower"}]}
{"compound": "COc1cc2c(cc1OC)[C@@H]1C(=O)c3ccc4c(c3O[C@@H]1CO2)C[C@H](C(C)([123I])CO)O4", "note": "(single isomer, unassigned) [Fraction 1]", "values": [{"measurement": "Blood", "setting": "[1]", "result": "0.191 ± 0.040", "unit": "% ID/g"}, {"measurement": "Brain", "setting": "[1]", "result": "0.063 ± 0.013", "unit": "% ID/g"}, {"measurement": "Femur", "setting": "[1]", "result": "0.239 ± 0.083", "unit": "% ID/g"}, {"measurement": "Heart", "setting": "[1]", "result": "1.617 ± 0.335", "unit": "% ID/g"}, {"measurement": "Heart/Blood ratio", "setting": "[1]", "result": "8.46 ± 0.51"}, {"measurement": "Heart/Liver ratio", "setting": "[1]", "result": "1.20 ± 0.35"}, {"measurement": "Heart/Lung ratio", "setting": "[1]", "result": "4.54 ± 0.59"}, {"measurement": "Intestine", "setting": "[1]", "result": "0.787 ± 0.186", "unit": "% ID/g"}, {"measurement": "Kidney", "setting": "[1]", "result": "0.634 ± 0.099", "unit": "% ID/g"}, {"measurement": "Liver", "setting": "[1]", "result": "1.363 ± 0.101", "unit": "% ID/g"}, {"measurement": "Lung", "setting": "[1]", "result": "0.357 ± 0.059", "unit": "% ID/g"}, {"measurement": "Muscle", "setting": "[1]", "result": "0.369 ± 0.117", "unit": "% ID/g"}, {"measurement": "Spleen", "setting": "[1]", "result": "0.177 ± 0.031", "unit": "% ID/g"}, {"measurement": "Stomach", "setting": "[1]", "result": "1.628 ± 0.837", "unit": "% ID/g"}, {"measurement": "Testis", "setting": "[1]", "result": "0.128 ± 0.017", "unit": "% ID/g"}, {"measurement": "Thyroid", "setting": "[1]", "result": "0.826 ± 0.191", "unit": "% ID/g"}, {"measurement": "Urine", "setting": "[1]", "result": "0.528 ± 0.134", "unit": "% ID/g"}]}
{"compound": "[C-]#[N+]CC(C)(C)OC.[C-]#[N+]CC(C)(C)OC.[C-]#[N+]CC(C)(C)OC.[C-]#[N+]CC(C)(C)OC.[C-]#[N+]CC(C)(C)OC.[C-]#[N+]CC(C)(C)OC.[Tc]", "note": "[^99mTc-sestamibi]", "values": [{"measurement": "standardized slope (Glover et al. slope divided by 100)", "setting": "[2]; representative dog, critical LAD stenosis, intravenous adenosine", "result": "−1.43"}, {"measurement": "slope of non-linear fitted line, activity (% normal) vs microsphere flow (FIG. 4 of Glover et al.)", "setting": "[3]", "result": "−143"}, {"measurement": "fractional appearance rates at later time points", "setting": "[4]", "result": "higher fractional appearance rates"}, {"measurement": "initial peak fractional venous appearance rate", "setting": "[4]", "result": "lower fractional venous appearance rates"}, {"measurement": "intercept of linear regression, maximum net uptake vs flow", "setting": "[4]; [9]", "result": 0.14}, {"measurement": "slope of linear regression, maximum net uptake vs flow (FIG. 10)", "setting": "[4]; [9]", "result": 0.33}, {"measurement": "slope of the non-linear fitted line, uptake (% ID/g) vs MBF (FIG. 8)", "setting": "[5]; pig hearts", "result": "−1.21"}, {"measurement": "myocardial flow rate at which uptake begins to level off (roll off)", "setting": "[5]", "result": 1.5, "unit": "mL/min/g"}]}
{"compound": "COc1cc2c(cc1OC)C1C(=O)c3ccc4c(c3OC1CO2)CC(/C(C)=C\\[123I])O4", "note": "(stereo not shown) [^123I-ZIROT, 7-(Z)-[^123I]iodorotenone]", "values": [{"measurement": "ratio of slope (Broisat et al.) to standardized ^99mTc-Sestamibi slope (Glover et al.)", "setting": "[2]; dog literature data", "result": 2.5}, {"measurement": "slope of non-linear fitted line, uptake vs microsphere flow (FIG. 3 of Broisat et al.)", "setting": "[3]", "result": "−3.59"}]}
{"compound": "COc1cc2c(cc1OC)C1C(=O)c3ccc4c(c3OC1CO2)CC(/C(C)=C\\[125I])O4", "note": "(stereo not shown) [^125I-rotenone, 7′-Z-[^125I]iodorotenone]", "values": [{"measurement": "ratio of the slopes of the fitted lines vs ^99mTc-sestamibi (Marshall et al.)", "setting": "[6]", "result": 2.69}, {"measurement": "venous effluent rate at the later portions of the curve (FIG. 1 of Marshall et al.)", "setting": "[7]", "result": "higher venous effluent rate relative to the isomers of Mixture A"}]}
{"compound": "[201Tl]", "note": "[^201Tl, ^201Thallium]", "values": [{"measurement": "fractional appearance rates at later time points", "setting": "[4]", "result": "higher fractional appearance rates"}, {"measurement": "initial peak fractional venous appearance rate", "setting": "[4]", "result": "lower fractional venous appearance rates"}]}
{"compound": "Technetium (^99mTc) tetrofosmin [^99mTc-tetrofosmin]", "values": [{"measurement": "cellular internalization over time (cpm per total protein)", "setting": "[8]", "result": "evident at 15 s but a gradual increase was seen up to 5 min"}, {"measurement": "myocardial flow rate at which uptake begins to level off (roll off)", "setting": "[5]", "result": 2, "unit": "mL/min/g"}]}
